Where two headings read alike, the source gives them in different places.
What was measured:
[1] = test system: all bacterial strains tested; assay: Antibacterial MIC, summary over the panel; type: cell-based; conditions: read-out: antibacterial MIC values
Outline: (§1)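 Compounds were first screened at 500 μM each, then MICs were read by serial twofold dilution of the compound against the bacterial strain.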

C. albicans ATCC 10231 = assay: Antifungal MIC, CLSI M27-A3 microbroth dilution; type: cell-based, Candida albicans; conditions: Candida albicans, ATCC10231, C. albicans ATCC 10231, resistant to FLC, ITC, and VOR, read-out: MIC
Description: (§2) In vitro MIC testing was performed according to the CLSI M27-A3 standard microbroth dilution methodology for the susceptibility testing of yeasts with minor modifications.

C. albicans ATCC 2876 = assay: Antifungal MIC, CLSI M27-A3 microbroth dilution; type: cell-based, Candida albicans; conditions: Candida albicans, ATCC2876, C. albicans ATCC 2876, susceptible to FLC, ITC, and VOR, read-out: MIC
Description: as §2

C. albicans ATCC 1003 = assay: Antifungal MIC, CLSI M27-A3 microbroth dilution; type: cell-based, Candida albicans; conditions: Candida albicans, ATCC1003, read-out: MIC
Description: as §2

C. albicans ATCC 90819 = assay: Antifungal MIC, CLSI M27-A3 microbroth dilution; type: cell-based, Candida albicans; conditions: Candida albicans, ATCC90819, C. albicans ATCC 90819, resistant to FLC, ITC, and VOR, read-out: MIC
Description: as §2

C. albicans ATCC 64124 = assay: Antifungal MIC, CLSI M27-A3 microbroth dilution; type: cell-based, Candida albicans; conditions: Candida albicans, ATCC64124, C. albicans ATCC 64124, resistant to FLC, ITC, and VOR, read-out: MIC
Description: as §2

C. albicans ATCC 2310 = assay: Antifungal MIC, CLSI M27-A3 microbroth dilution; type: cell-based, Candida albicans; conditions: Candida albicans, ATCC2310, C. albicans ATCC 2310, susceptible to FLC, ITC, and VOR, read-out: MIC
Description: as §2

[2] = Mammalian cell cytotoxicity, resazurin; type: cell-based; conditions: human
Description: Another important aspect to consider during the development of antimicrobial agents is their potential toxicity towards mammalian cells. Having established the potent antimicrobial activities of the bis(N-amidino)hydrazones and N-amidino-N′-aryl-bishydrazones against bacteria and fungi, the toxicity profile of these compounds was determined against two mammalian cell lines (A549 and BEAS-2B; FIGS. 4A-B). […]. Cytotoxicity assays were performed as previously described. The human lung carcinoma epithelial cells A549 and the normal human bronchial epithelial cells BEAS-2B were grown in F12-K and DMEM medium containing 10% fetal bovine serum (FBS) and 1% antibiotics, respectively. The confluent cells were trypsinized with 0.05%-trypsin-0.53 mM EDTA, centrifuged (1,200 rpm) and resuspended in fresh medium (F12-K or DMEM). The cells were seeded into 96-well microtiter plates at a density of 3,000 cells/well and were grown overnight. […] Triton X-100® (0.5%, v/v) gave complete loss of cell viability and was used as the positive control. The percent cell survival was calculated as: (test value/control value)×100, where control value represents cells+resazurin−drug, and test value represents cells+resazurin+drug.

P. aeruginosa ATCC 27853 = assay: Antibacterial MIC, double-dilution method; type: cell-based; conditions: Pseudomonas aeruginosa, ATCC27853, strain I, Gram-negative, read-out: MIC
Outline: as §1

A. baumannii ATCC 19606 = assay: Antibacterial MIC, double-dilution method; type: cell-based; conditions: Acinetobacter baumannii, ATCC19606, strain E, Gram-negative, read-out: MIC
Outline: as §1

B. subtilis 168 = assay: Antibacterial MIC, double-dilution method; type: cell-based; conditions: Bacillus subtilis, strain A, Gram-positive
Outline: as §1

M. smegmatis MC2-155 = assay: Antibacterial MIC, double-dilution method; type: cell-based; conditions: Mycolicibacterium smegmatis, MC2155, strain K, mycobacterial, read-out: MIC
Outline: as §1

K. pneumoniae ATCC 27736 = assay: Antibacterial MIC, double-dilution method; type: cell-based; conditions: Klebsiella pneumoniae, ATCC27736, strain H, Gram-negative, read-out: MIC
Outline: as §1

E. cloacae ATCC 13047 = assay: Antibacterial MIC, double-dilution method; type: cell-based; conditions: Enterobacter cloacae, ATCC13047, strain F, Gram-negative, read-out: MIC
Outline: as §1

VRE = assay: Antibacterial MIC, double-dilution method; type: cell-based; conditions: Enterococcus, strain D, Gram-positive, read-out: MIC
Outline: as §1

E. coli MC1061 = assay: Antibacterial MIC, double-dilution method; type: cell-based; conditions: Escherichia coli, strain G, Gram-negative, read-out: MIC
Outline: as §1

S. enterica ATCC 14028 = assay: Antibacterial MIC, double-dilution method; type: cell-based; conditions: Salmonella enterica, ATCC14028, strain J, Gram-negative, read-out: MIC
Outline: as §1

MRSA = assay: Antibacterial MIC, double-dilution method; type: cell-based; conditions: Staphylococcus aureus, strain C, Gram-positive, read-out: MIC
Outline: as §1

[3] = test system: L. monocytogenes ATCC 19115; assay: Antibacterial MIC, double-dilution method; type: cell-based; conditions: Listeria monocytogenes, ATCC19115, strain B, Gram-positive, read-out: MIC
Outline: as §1

[4] = test system: C. albicans strains (panel of seven); assay: Antifungal MIC, summary over the panel; type: cell-based, Candida albicans; conditions: for antifungal activity in words: against all fungal strains tested
Outline: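 Performed by CLSI M27-A3 broth microdilution for yeast susceptibility, with minor modifications. MIC was read visually as the lowest concentration giving complete growth inhibition relative to the growth control.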

[5] = C. albicans ATCC 1003, converted from μg/mL
[6] = A549 lung carcinoma epithelial cells, A549, 24 h
[7] = BEAS-2B normal bronchial epithelial cells

Row | Compound | MIC (C. albicans ATCC 10231; converted from μg/mL) [µM] | MIC (C. albicans ATCC 2876; converted from μg/mL) [µM] | MIC (C. albicans ATCC 1003; [5]) [µM] | MIC (C. albicans ATCC 90819; converted from μg/mL) [µM] | MIC (C. albicans ATCC 64124; converted from μg/mL) [µM] | MIC (C. albicans ATCC 64124) [µg/mL] | MIC (C. albicans ATCC 2310; converted from μg/mL) [µM] | MIC (P. aeruginosa ATCC 27853; converted from μM) [µg/mL] | MIC (P. aeruginosa ATCC 27853; range 0.5 to 500 μM) [µM] | MIC (A. baumannii ATCC 19606; converted from μM) [µg/mL] | MIC (A. baumannii ATCC 19606; range 0.5 to 500 μM) [µM] | MIC (B. subtilis 168; converted from μM) [µg/mL] | MIC (B. subtilis 168; range 0.5 to 500 μM) [µM] | MIC (M. smegmatis MC2-155; converted from μM) [µg/mL] | MIC (M. smegmatis MC2-155; range 0.5 to 500 μM) [µM] | MIC (K. pneumoniae ATCC 27736; converted from μM) [µg/mL] | MIC (K. pneumoniae ATCC 27736; range 0.5 to 500 μM) [µM] | MIC (E. cloacae ATCC 13047; converted from μM) [µg/mL] | MIC (E. cloacae ATCC 13047; range 0.5 to 500 μM) [µM] | MIC (VRE; converted from μM) [µg/mL] | further results
1 | Cl.N=C(N)N/N=C/c1ccc(-c2ccc(/C=N/Nc3ccc(Cl)cc3)cc2)cc1 [Compound 7Ad, (E)-2-((4′-((E)-(2-(4-Chlorophenyl)hydrazono)methyl)-[1,1′-biphenyl]-4-yl)methylene)hydrazine-1-carboximidamide monohydrochloride] | 18.3 | 18.3 | 9.1 | 18.3 | 36.5 | 15.6 | 9.1 | > 214 | > 500 | > 214 | > 500 | > 214 | > 500 | 1.7 | 3.9 | > 214 | > 500 | > 214 | > 500 | 1.7 | MIC [1]: 0.4 to 3.3 µg/mL; MIC (C. albicans ATCC 10231): 7.8 µg/mL; MIC (C. albicans ATCC 2876): 7.8 µg/mL; MIC (C. albicans ATCC 1003): 3.9 µg/mL; MIC (C. albicans ATCC 90819): 7.8 µg/mL; MIC (C. albicans ATCC 2310): 3.9 µg/mL; IC50 at 24 h [2, 6]: 7.8 to 15.6 µg/mL; IC50 at 24 h [2, 7]: 7.8 to 15.6 µg/mL; MIC (VRE; range 0.5 to 500 μM): 3.9 µM; MIC (E. coli MC1061; converted from μM): > 214 µg/mL; MIC (E. coli MC1061; range 0.5 to 500 μM): > 500 µM; MIC (S. enterica ATCC 14028; converted from μM): > 214 µg/mL; MIC (S. enterica ATCC 14028; range 0.5 to 500 μM): > 500 µM; MIC (MRSA; converted from μM): 3.3 µg/mL; MIC (MRSA; range 0.5 to 500 μM): 7.8 µM; MIC ([3]; converted from μM): 1.7 µg/mL; MIC ([3]; range 0.5 to 500 μM): 3.9 µM; MIC ([4]; Candida albicans, all, most or majority of the fungal strains, read-out: MIC, span over C. albicans strains): 7.8 to 15.6 µg/mL
2 | Cl.N=C(N)N/N=C/c1ccc(-c2ccc(/C=N/Nc3ccc(F)cc3F)cc2)cc1 [Compound 7Af, (E)-2-((4′-((E)-(2-(2,4-Difluorophenyl)hydrazono)methyl)-[1,1′-biphenyl]-4-yl)methylene) hydrazine-1-carboximidamide, monohydrochloride] | 2.3 | 9.1 | 4.5 | 18.2 | 9.1 | 3.9 | 9.1 | > 214 | > 500 | > 214 | > 500 | > 214 | > 500 | 0.9 to 1.7 | 2 to 3.9 | > 214 | > 500 | > 214 | > 500 | 1.7 | MIC [1]: 0.4 to 3.3 µg/mL; MIC (C. albicans ATCC 10231): 1 µg/mL; MIC (C. albicans ATCC 2876): 3.9 µg/mL; MIC (C. albicans ATCC 1003): 2 µg/mL; MIC (C. albicans ATCC 90819): 7.8 µg/mL; MIC (C. albicans ATCC 2310): 3.9 µg/mL; IC50 at 24 h [2, 6]: 7.8 to 15.6 µg/mL; IC50 at 24 h [2, 7]: 7.8 to 15.6 µg/mL; MIC (VRE; range 0.5 to 500 μM): 3.9 µM; MIC (E. coli MC1061; converted from μM): > 214 µg/mL; MIC (E. coli MC1061; range 0.5 to 500 μM): > 500 µM; MIC (S. enterica ATCC 14028; converted from μM): > 214 µg/mL; MIC (S. enterica ATCC 14028; range 0.5 to 500 μM): > 500 µM; MIC (MRSA; converted from μM): 1.7 µg/mL; MIC (MRSA; range 0.5 to 500 μM): 3.9 µM; MIC ([3]; converted from μM): 0.9 to 1.7 µg/mL; MIC ([3]; range 0.5 to 500 μM): 2 to 3.9 µM; antifungal activity in words [4]: excellent antifungal activities
3 | Cl.N=C(N)N/N=C/c1ccc(-c2ccc(C=NNc3ccccc3Cl)cc2)cc1 (mixture of isomers) [Compound 7Aa, E)-2-((4′-((E and Z)-(2-(2-Chlorophenyl)hydrazono)methyl)-[1,1′-biphenyl]-4-yl)methylene)hydrazine-1-carboximidamide monohydrochloride] | 4.6 | 4.6 | 4.6 | 4.6 | 9.2 | 3.9 | 4.6 | > 215 | > 500 | > 215 | > 500 | > 215 | > 500 | 1.7 | 3.9 | > 215 | > 500 | > 215 | > 500 | 0.9 | MIC (E. coli MC1061; converted from μM): > 215 µg/mL; MIC (E. coli MC1061; range 0.5 to 500 μM): > 500 µM; MIC (S. enterica ATCC 14028; converted from μM): > 215 µg/mL; MIC (S. enterica ATCC 14028; range 0.5 to 500 μM): > 500 µM; MIC (MRSA; converted from μM): 0.9 µg/mL; MIC ([3]; converted from μM): 0.4 to 0.9 µg/mL; MIC ([3]; range 0.5 to 500 μM): 1 to 2 µM; antifungal activity in words [4]: excellent antifungal activities
